Laboratory results: the Deep4Chem optical property database

Experiment: solvent given as SMILES

Compound: FC(F)(F)c1ccc(C2=CC3=c4cc(-c5ccc(C(F)(F)F)cc5)c5nc(C(F)(F)C(F)(F)C(F)(F)F)nc6c(-c7ccc(C(F)(F)F)cc7)cc(c4c65)C4=CC(c5ccc(C(F)(F)F)cc5)=C5N=C(C(F)(F)C(F)(F)C(F)(F)F)N=C2C5C43)cc1 (stereo not drawn)
- emission maximum (in C1CCOC1): 512 nm

Compound: N#Cc1c(-n2c3ccc(Br)cc3c3cc(Br)ccc32)c(-n2c3ccc(Br)cc3c3cc(Br)ccc32)c(C#N)c(-n2c3ccc(Br)cc3c3cc(Br)ccc32)c1-n1c2ccc(Br)cc2c2cc(Br)ccc21
- emission maximum (in Cc1ccccc1): 546 nm

Compound: CCCCC(CC)Cn1c2cc(C#N)c(-c3ccc(N(c4ccccc4)c4ccccc4)cc3)cc2c2cc(-c3ccc(N(c4ccccc4)c4ccccc4)cc3)c(C#N)cc21 (stereo not drawn)
- emission maximum (in C1CCCCC1): 450 nm
- emission maximum (in C1CCOC1): 494 nm
- emission maximum (in CC#N): 542 nm
- emission maximum (in CCCCOCCCC): 464 nm
- emission maximum (in CCN(CC)CC): 464.65 nm
- emission maximum (in CCOC(C)=O): 494 nm
- emission maximum (in CCOCC): 472 nm
- emission maximum (in CN(C)C=O): 542 nm
- emission maximum (in Cc1ccccc1): 473 nm
- emission maximum (in ClC=C(Cl)Cl): 478 nm
- emission maximum (in ClCCl): 513 nm

Compound: CCn1c2ccccc2c2cc(/C=C/c3cc(/C=C/c4ccc5c(c4)c4ccccc4n5CC)ncn3)ccc21
- emission maximum (in C1CCOC1): 463 nm
- emission maximum (in CCOC(C)=O): 460 nm
- emission maximum (in CN(C)C=O): 500 nm
- emission maximum (in Cc1ccccc1): 440 nm
- emission maximum (in ClCCl): 492 nm

Compound: N#Cc1cccc2ccccc12
- emission maximum (in Cc1ccccc1): 341.02 nm

Compound: Cc1ccc([C@@H]2C[C@](O)(c3ccccn3)C[C@](O)(c3ccccn3)[C@H]2C(=O)c2ccc(N(c3ccccc3)c3ccccc3)cc2)cc1
- emission maximum (in C1CCOC1): 495 nm
- emission maximum (in CC#N): 525 nm
- emission maximum (in CCO): 511 nm
- emission maximum (in CCOC(C)=O): 496 nm
- emission maximum (in CN(C)C=O): 523 nm
- emission maximum (in ClCCl): 516 nm
- emission maximum (in c1ccccc1): 466 nm

Compound: C1=C(c2ccccc2)C=C(c2ccccc2)/C1=C/c1ccc2ccc3cccc4ccc1c2c34
- emission maximum (in C1CCOC1): 480 nm

Compound: CCCCCCC(CCCCCC)N1C(=O)c2cccc3c(-c4ccc(OC)c5ccccc45)ccc(c23)C1=O
- emission maximum (in CCCCCC): 427.1 nm
- emission maximum (in CCCCCCCCCCCCCC): 431.7 nm
- emission maximum (in CCCCCCCCCCCO): 532.4 nm
- emission maximum (in CCCCO): 576.8 nm
- emission maximum (in CN(C)C=O): 581.8 nm
- emission maximum (in Cc1ccccc1): 478 nm
- emission maximum (in ClC(Cl)Cl): 509.7 nm

Compound: Cc1ccc2ccc3cccc4ccc1c2c34
- emission maximum (in CCCCCC): 377 nm
- emission maximum (in CO): 377 nm
- emission maximum (in ClCCl): 378 nm

Compound: CCn1c(=O)nc2n(C)c3cc(C)ccc3nc-2c1=O
- emission maximum (in C1COCCO1): 527 nm
- emission maximum (in CC#N): 530 nm
- emission maximum (in CO): 532 nm
- emission maximum (in ClCCCl): 531 nm

Compound: CN(C)c1ccc2c3c(ccc2c1)C(=O)CCC3
- emission maximum (in C1CCCCC1): 407 nm
- emission maximum (in CC#N): 448 nm
- emission maximum (in CC(C)O): 482 nm
- emission maximum (in CCC(C)=O): 443 nm
- emission maximum (in CCO): 489 nm
- emission maximum (in CCOC(C)=O): 429 nm
- emission maximum (in CS(C)=O): 453 nm
- emission maximum (in Cc1ccccc1): 417 nm
- emission maximum (in ClCCl): 440 nm
- emission maximum (in Clc1ccccc1): 423 nm

Compound: CCCCCCn1c2cc(/C=C(\C#N)c3ccccc3)ccc2c2ccc(/C=C(\C#N)c3ccccc3)cc21
- emission maximum (in ClC(Cl)Cl): 469.48 nm

Compound: CC(C)(C)c1ccc(C2=c3sc4ccccc4c3=[N+]3C2=Nc2c(-c4ccc(C(C)(C)C)cc4)c4sc5ccccc5c4n2[B-]3(F)F)cc1
- emission maximum (in C1CCOC1): 800 nm
- emission maximum (in Cc1ccccc1): 796 nm
- emission maximum (in ClC(Cl)Cl): 794 nm

Compound: CC1=C(C#Cc2ccc([Si](c3ccccc3)(c3ccccc3)c3ccccc3)cc2)C(C)=[N+]2C1=C(c1ccccc1)c1c(C)c(C#Cc3ccc([Si](c4ccccc4)(c4ccccc4)c4ccccc4)cc3)c(C)n1[B-]2(F)F
- emission maximum (in ClCCl): 600 nm

Compound: CC(C)[Si](C#Cc1c2cc3ccccc3cc2c(C#Cc2ccc(C(F)(F)F)cc2)c2cc3ccccc3cc12)(C(C)C)C(C)C
- emission maximum (in ClCCl): 667 nm

Compound: COc1cc2c(cc1OC)C1=C[C@H](c3ccccc3)C3(C(C#N)=C(C#N)N1CC2)c1ccccc1-c1ccccc13
- emission maximum (in ClCCl): 410 nm

Compound: Oc1ccccc1/C=N/c1ccc(Cn2cncn2)cc1
- emission maximum (in C1CCOC1): 363.99 nm
- emission maximum (in C1COCCO1): 324 nm
- emission maximum (in CC#N): 428.01 nm
- emission maximum (in CC(C)=O): 381 nm
- emission maximum (in CC(C)O): 367 nm
- emission maximum (in CCCCCC): 314 nm
- emission maximum (in CCCCO): 368 nm
- emission maximum (in CCO): 407 nm
- emission maximum (in CCOC(C)=O): 357 nm
- emission maximum (in CCOCC): 346 nm
- emission maximum (in CN(C)C=O): 397.99 nm
- emission maximum (in CO): 430 nm
- emission maximum (in CS(C)=O): 437.01 nm
- emission maximum (in Cc1ccccc1): 326 nm
- emission maximum (in ClCCl): 363 nm

Compound: CCCCCCCCc1ccc(-c2c3cc(-c4cc(CCCCCCCC)c(-c5ccc(-c6sc(/C=C7\SC(=S)N(CC)C7=O)cc6CCCCCCCC)s5)s4)sc3c(-c3ccc(CCCCCCCC)s3)c3cc(-c4cc(CCCCCCCC)c(-c5ccc(-c6sc(/C=C7\SC(=S)N(CC)C7=O)cc6CCCCCCCC)s5)s4)sc23)s1
- emission maximum (in ClC(Cl)Cl): 670 nm

Compound: COc1ccc(-n2c3ccccc3c3cc(/C=C/C(=C(C#N)C#N)c4ccccc4)ccc32)cc1
- emission maximum (in C1CCOC1): 560 nm
- emission maximum (in CC#N): 594 nm
- emission maximum (in CC(C)=O): 582 nm
- emission maximum (in CCOC(C)=O): 550 nm
- emission maximum (in CO): 597 nm
- emission maximum (in CS(C)=O): 601 nm
- emission maximum (in Cc1ccccc1): 526 nm
- emission maximum (in ClC(Cl)Cl): 554 nm

Compound: Cc1c(C)c(B(c2c(C)c(C)c(C#N)c(C)c2C)c2c(C)c(C)c(N3c4ccccc4Oc4ccccc43)c(C)c2C)c(C)c(C)c1C#N
- emission maximum (in c1ccc([Si](c2ccccc2)(c2ccc(-n3c4ccccc4c4ccccc43)cc2)c2ccc(-n3c4ccccc4c4ccccc43)cc2)cc1): 533 nm

Compound: Cc1ccccc1C1=C2C=c3c(oc4c3ccc3ccccc34)=[N+]2[B-](F)(F)n2c1cc1c3ccc4ccccc4c3oc12
- emission maximum (in C1CCCCC1): 625 nm
- emission maximum (in CCOC(C)=O): 626.5 nm
- emission maximum (in CO): 625 nm

Compound: COc1cc(N(CC(=O)[O-])CC(=O)[O-])c2ncccc2c1
- emission maximum (in O): 487 nm

Compound: CCCCOc1c(-c2ccc(N(c3ccccc3)c3ccccc3)cc2)cc2cc(-c3ccc(N(c4ccccc4)c4ccccc4)cc3)c(OCCCC)c3c4c(OCCCC)c(-c5ccc(N(c6ccccc6)c6ccccc6)cc5)cc5cc(-c6ccc(N(c7ccccc7)c7ccccc7)cc6)c(OCCCC)c(c1c23)c54
- emission maximum (in ClCCl): 490 nm

Compound: CCCCCCCCCCCCN1C(=O)c2ccc3c4ccc5c6c(ccc(c7ccc(c2c37)C1=O)c64)C(=O)N(CCCCCCCCCCCC)C5=O
- emission maximum (in CN(C)C=O): 536 nm

Compound: CN(C)c1ccc(/C=C/c2nc(/C=C/c3ccc(N(c4ccccc4)c4ccccc4)cc3)cc(/C=C/c3ccc(N(c4ccccc4)c4ccccc4)cc3)n2)cc1
- emission maximum (in C1CCOC1): 512 nm
- emission maximum (in CC#N): 574 nm
- emission maximum (in CC(C)=O): 552 nm
- emission maximum (in CCCCCCC): 460 nm
- emission maximum (in CS(C)=O): 577 nm
- emission maximum (in Cc1ccccc1): 495 nm
- emission maximum (in ClCCl): 577 nm

Compound: CC(=O)c1c2c(cc3cc(N(C)C)ccc13)CCC2
- emission maximum (in C1CCCCC1): 445 nm
- emission maximum (in C1CCOC1): 505 nm
- emission maximum (in C1COCCO1): 495 nm
- emission maximum (in CC#N): 545 nm
- emission maximum (in CCO): 605 nm
- emission maximum (in CS(C)=O): 558 nm
- emission maximum (in Cc1ccccc1): 481 nm
- emission maximum (in ClC(Cl)Cl): 511 nm
- emission maximum (in ClCCl): 509 nm

Compound: COc1ccc(C#Cc2ccc3nc4ccc(C#Cc5ccc(OC)cc5)cn4c(=O)c3c2)cc1
- emission maximum (in ClCCl): 486 nm

Compound: COc1ccc(C#Cc2c3ccccc3c(C#Cc3ccc(OC)cc3)c3cc4sc(C)cc4cc23)cc1
- emission maximum (in ClCCl): 538 nm

Compound: CCCc1ccc2c(c1)cc1n2B2c3c4c-1cccc4cc1cccc(c31)-c1cc3cc(CCC)ccc3n12
- emission maximum (in C1CCOC1): 565 nm

Compound: Cc1ccc(C#Cc2ccc3ccc4cccc5ccc2c3c45)cc1
- emission maximum (in CCCCCC): 387 nm
- emission maximum (in CCO): 391 nm
- emission maximum (in CCOC(C)=O): 391 nm
- emission maximum (in ClCCl): 395 nm

Compound: c1ccc2c(c1)Cc1cc3c(cc1-2)Cc1ccccc1-3
- emission maximum (in C1CCCCC1): 340 nm
- emission maximum (in ClCCl): 356 nm

Compound: CN(C)c1ccc(C2=Nc3sc4cc(C(F)(F)F)ccc4[n+]3[B-](F)(F)O2)cc1
- emission maximum (in C1CCOC1): 486 nm
- emission maximum (in CC#N): 500 nm
- emission maximum (in CC(C)=O): 495 nm
- emission maximum (in Cc1ccccc1): 460 nm
- emission maximum (in ClCCl): 478 nm

Compound: c1ccc(-c2cc3cccc4cc(-c5ccccc5)c5cc(-c6cc7[b-]8c(c6)c(-c6ccccc6)cc6cccc(cc7-c7ccccc7)[n+]86)cc2[b-]5[n+]34)cc1
- emission maximum (in C1CCCCC1): 521 nm

Compound: COc1ccc2c(c1)c1cc(OC)ccc1n2-c1ccc(S(=O)(=O)c2ccc(-n3c4ccc(OC)cc4c4cc(OC)ccc43)cc2)cc1
- emission maximum (in Cc1ccccc1): 445 nm

Compound: COc1ccc(C2=C(c3ccc(OC)cc3)C(c3ccccc3)=[N+]3C2=Nc2c(-c4ccc(OC)cc4)c(-c4ccc(OC)cc4)c(-c4ccccc4)n2[B-]3(F)F)cc1
- emission maximum (in Cc1ccccc1): 750 nm

Compound: CCCCCCOc1ccc(C#Cc2ccc(C#Cc3ccc(OCCCCCC)c(OCCCCCC)c3)c3nsnc23)cc1OCCCCCC
- emission maximum (in C1CCCCC1): 504 nm
- emission maximum (in CCOC(C)=O): 550 nm
- emission maximum (in CN(C)C=O): 600 nm
- emission maximum (in COc1ccccc1): 561 nm
- emission maximum (in Cc1ccccc1): 537 nm
- emission maximum (in ClC(Cl)Cl): 580 nm
- emission maximum (in ClCCCl): 581 nm
- emission maximum (in ClCCl): 577 nm

Compound: COc1ccc(C2=CC(c3ccc(OC)cc3)=[O+][B-](C(C)=O)(C(C)=O)O2)cc1
- emission maximum (in CC#N): 435 nm
- emission maximum (in ClC(Cl)(Cl)Cl): 420 nm

Compound: C[n+]1ccc(/C=C/c2cc[n+](C)cc2)cc1
- emission maximum (in CC#N): 372 nm

Compound: c1cc2cc(c1)c1cccc(c1)c1cccc(c1)c1cccc(c1)c1cccc(c1)c1cccc2c1
- emission maximum (in ClC(Cl)Cl): 337 nm

Compound: COc1ccc(C(=Cc2ccc(/C=C(\C#N)c3ccccc3)cc2)c2ccc(OC)cc2)cc1
- emission maximum (in C1CCOC1): 510 nm

Compound: c1ccc(N(c2ccccc2)c2ccc(-c3ccc4c(c3)C3(c5cc(-c6ccc(N(c7ccccc7)c7ccccc7)cc6)ccc5S4)c4ccccc4-c4ccccc43)cc2)cc1
- emission maximum (in CC(C)=O): 414.99 nm
- emission maximum (in CCCCCC): 392.96 nm
- emission maximum (in CN(C)C=O): 421.13 nm
- emission maximum (in Cc1ccccc1): 398.74 nm
- emission maximum (in ClCCl): 410 nm

Compound: CC[N+](CC)=c1ccc2cc3oc4cc(N)ccc4c3oc-2c1
- emission maximum (in CCO): 629 nm
- emission maximum (in ClCCl): 623 nm
- emission maximum (in O): 627 nm
